The values that follow come from patent publication US20100256214A1, “EPH RECEPTOR LIGANDS AND METHODS OF USE” (Burnham Institute for Medical Research, priority 2009, published 2010).

In general, Ki refers to a dissociation constant, usually derived from enzyme kinetics or from competition with a known ligand. Broadly, the IC50 is the concentration at which inhibition is half-maximal.

Data set [1] addresses EphA4 (Homo sapiens, UniProt P54764). The experiment in a line: ELISA, ephrin-A5 AP binding to immobilized EphA4 Fc. Conditions: for IC50: read-out: IC50 for inhibition of ephrin-A5 AP binding to EphA4. As to the method: ELISA Assays and K, Determination—Protein A-coated wells (Pierce Biotecnology, Rockford, Ill.) were used to immobilize ephrin Fc fusion proteins (R&D Systems, Minneapolis, Minn.). Compounds at different concentrations were incubated with EphA4 AP (Cheng and Flanagan, (1994) Cell 79(1), 157-168) or EphA2 AP (Koolpe et al. (2002) J Biol Chem 277(49), 46974-46979) for 3 hours. Alternatively, Eph receptor Fc fusion proteins were immobilized on protein A-coated wells and ephrin-A5 AP (Menzel et al. (2001) Developmental Biology 230(1), 74-88) or ephrin-B2 AP (GeneHunter, Nashville, Tenn.) were added with the compounds. The amount of bound AP-fusion protein was quantified using pNPP as the substrate. Alkaline phosphatase activity from wells with Fc only was subtracted as background. To confirm that the binding of the compounds to EphA4 was reversible, the compounds were removed and the wells were incubated in binding buffer for 3 hours before washing and incubating with ephrin AP fusion proteins. Under these conditions, no inhibition of ephrin binding was observed indicating the reversible binding of the compounds.
To calculate the inhibition constant (KO values, the binding of ephrin-A5 AP to EphA4 Fc immobilized on protein A-coated wells was measured in the absence and in the presence of the compounds at different concentrations. Each data set was fitted to the Michaelis-Menten equation: B=Bmax [S]/(KD+[S]), where [S] is the concentration of ephrin AP fusion protein and KD is the dissociation constant observed in the absence or in the presence of the compound, using non linear regression and the program GraphPad (Prism). To evaluate whether the inhibition is competitive, noncompetitive or uncompetitive the KD and Bmax values were determined at different compound concentrations. The Ki was obtained from the linear regression plot of KD/Bmax as a function of the concentration of the inhibitor according to: KD/Bmax=(KD[S])/(Ki·Bmax)+KD/Bmax. Alternatively, Ki values were obtained from the dose response curves, using the Cheng-Prusoff equation: Ki=IC50/(1+[S]/KD) (XX38, Cheng, Y., and Prusoff, W. H. (1973) Biochemical pharmacology 22(23), 3099-3108). Ephrin-A5 AP concentration were calculated from alkaline phosphatase activity (Flanagan et al. (2000) Methods in Enzymology. 327, 19-35).
Background: ELISA stands for enzyme-linked immunosorbent assay.

For data set [2], the target named is EphA4 (Mus musculus, UniProt Q03137). In words: ELISA, EphA4 AP binding to immobilized biotinylated KYL peptide. On the set-up: made in house; conditioned culture medium used. As to the method:
Chemical Library Screening for EphA4 Inhibitors—A 96-well format in vitro assay was used for compound screening. Polystyrene high binding capacity plates (Corning, Corning, N.Y.) were incubated overnight at 4° C. with 2 μg/mL streptavidin (Pierce Biotecnology, Rockford, Ill.) diluted in borate buffer 0.1 M pH 8.7 and then coated by overnight incubation with 0.1 μM of biotinylated KYL peptide (Murai et al. (2003) Mol Cell Neurosci 24(4), 1000-1011) in binding buffer (Tris-buffered saline (TBS; 150 mM NaCl, 50 mM Tris-HCl, pH 7.5) with 1 mM CaCl2 and 0.01% Tween 20). Compounds were added to the wells at 10 μg/mL in 100% dimethylsulfoxide (DMSO) together with EphA4 alkaline phosphatase fusion protein (EphA4 AP) produced from transfected cells. Cell culture medium containing the secreted EphA4 AP was diluted 1:16 in binding buffer. The mixture was incubated for 3 hours at room temperature before washing with binding buffer and adding p-nitrophenylphosphate (pNPP) (Pierce Biotecnology, Rockford, Ill.) as the substrate. After 1 hour the reaction was stopped by adding 2N NaOH and the absorbance at 405 nm was measured using an ELISA plate reader Alkaline phosphatase activity from wells where alkaline phosphatase (AP) was added instead of EphA4 AP was subtracted as background. The inhibitory activity of the compounds was calculated by dividing the absorbance observed in the presence of each compound and the absorbance from wells where no compound was added. Compounds with inhibitory activity higher than 50% were considered hits.

Another data set has as its system HT22 neuronal cells. In words: MTT cytotoxicity assay. The format is cell-based, mouse. The conditions noted are these: concentrations up to 400 μM for several days. As to the method: FIG. 7. HT22 neuronal cells were grown in the presence of the indicated concentrations of compounds 1 and 2 for 1, 2 and 3 days. Only DMSO was used in the “0 μM” sample, as a control. After addition of MTT, absorbance was measured at 570 nm to determine the levels of viable cells present. The histograms show the absorbance obtained for each condition normalized to the absorbance in the absence of the compounds. Error bars represent standard error from 3 measurements.
MTT Assay—The cytotoxicity of the compounds was measured using the 3-(4,5-dimethylthiazol-2-yl)-2,5-diphenyltetrazolium bromide (MTT) colorimetric assay. Cells were seeded in 96-well plates and treated with compounds or DMSO starting 3, 2 or 1 day before they reached 100% confluency. For the assay, MTT (Sigma-Aldrich, St. Louis, Mo.) was added at a final concentration of […] and incubated with the cells for 3 hours. The resulting formazan crystals were then solubilized by addition of 100% DMSO. The absorbance in each well was measured at 570 nm using an ELISA plate reader. The results were expressed as the ratio of the absorbance of the cells treated with the compounds and left untreated.
In general terms: Formazan colour is commonly taken as a measure of viable cells.

Setting [3] is: from ephrin-A5 AP binding curves at different compound concentrations, read-out: Ki, competitive inhibition of EphA4-ephrin-A5 binding.
Where [4] appears, read: from other inhibition curves using different ephrin concentrations, read-out: Ki calculated with the Cheng-Prusoff equation, EphA4-ephrin-A5.
Where [5] appears, read: from the inhibition curves shown in FIG. 2, read-out: Ki calculated with the Cheng-Prusoff equation, EphA4-ephrin-A5.

Where two headings read alike, the source gives them in different places.

Chain of EphA4 (Mus musculus, UniProt Q03137) (Q03137 20-547 limits assumed): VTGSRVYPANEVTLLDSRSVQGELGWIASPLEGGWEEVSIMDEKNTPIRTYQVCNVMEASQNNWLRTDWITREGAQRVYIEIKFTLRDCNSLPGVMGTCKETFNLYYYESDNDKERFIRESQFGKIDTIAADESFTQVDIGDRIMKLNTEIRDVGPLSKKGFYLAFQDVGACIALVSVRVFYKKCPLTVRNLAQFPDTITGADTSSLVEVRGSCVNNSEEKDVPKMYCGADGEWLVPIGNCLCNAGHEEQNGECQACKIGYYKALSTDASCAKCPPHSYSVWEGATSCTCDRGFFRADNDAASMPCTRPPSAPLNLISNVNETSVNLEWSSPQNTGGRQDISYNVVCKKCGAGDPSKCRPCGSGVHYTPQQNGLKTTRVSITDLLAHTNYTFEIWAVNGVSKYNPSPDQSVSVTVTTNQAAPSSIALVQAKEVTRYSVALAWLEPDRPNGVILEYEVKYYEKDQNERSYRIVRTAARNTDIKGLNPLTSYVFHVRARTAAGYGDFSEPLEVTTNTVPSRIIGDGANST
Chain of EphA4 (Homo sapiens, UniProt P54764) (P54764 20-547 limits assumed, species assumed): as the sequence (Q03137 20-547 limits assumed) above, with A59P, S121N, G124V, Q250R, N251S, S270T, R378K, S406N counted along it

Regarding `Cc1ccc(C)n1-c1ccc(C(=O)O)c(O)c1` [compound 1, 4-(2,5-dimethyl-pyrrol-1-yl)-2-hydroxy-benzoic acid], the “inhibition of EphA4-ephrin-A5 binding (in words)” value on EphA4 [1] is listed as “inhibit”. The “reversibility of binding to EphA4” value on EphA4 [1] (compounds removed, 3 hours in binding buffer before ephrin AP) was “binds reversibly”. Further, the figures for the Ki on EphA4 [1] (setting [3]), at EphA4 [1] (setting [4]) and on EphA4 [1] (setting [5]) were 8 µM, 6 to 10 µM and 10 µM, respectively. In addition, at EphA4 [1], the IC50 worked out at 13 µM. Also, the “inhibition of EphA4-KYL peptide binding (in words)” value at EphA4 [2] is “inhibit”. Moreover, the “toxicity, cell viability by MTT” value in the data set on HT22 neuronal cells is on record as “did not reveal any toxicity”.
For the compound `Cc1ccc(C)n1-c1ccc(O)c(C(=O)O)c1` [compound 2, 5-(2,5 dimethyl-pyrrol-1-yl)-2-hydroxy-benzoic acid], the “inhibition of EphA4-ephrin-A5 binding (in words)” value on EphA4 [1] is reported as “inhibit”. Also, the Ki on EphA4 [1] (setting [3]) was 7 µM; at EphA4 [1] (setting [4]), 6 to 8 µM; on EphA4 [1] (setting [5]), 6 µM. Also, the values for the IC50 at EphA4 [1] and on EphA4 [2] (read-out: IC50 for inhibition of EphA4 AP binding to KYL peptide) were 9 µM and 3 µM, respectively. For the same compound, the “inhibition of EphA4-KYL peptide binding (in words)” value at EphA4 [2] was “inhibit”. Also, the “toxicity, cell viability by MTT” value in the data set on HT22 neuronal cells is on record as “did not reveal any toxicity”.
